According to patent US12071469B2, “Peptide compounds for suppressing inflammation” (Duke University, priority 2011, dated 2024):
“Also recorded” adds a separate entry of the source.

Columns and labels:
[1] = test system: primary rat neuronal cortical culture exposed to NMDA; test: Neuroprotection from NMDA mediated cell death in primary neuronal culture (LDH release); type: cell-based; conditions: for reduced LDH release: concentration not given
Protocol: Peptides of 5 amino acids in length were applied to one or more samples of cells in parallel at concentrations ranging from about 0 to about 50 μM, such as 0.3, 3, and 30 μM. The peptides AL-10-1 (SEQ ID NO:18) and VL-17-9 (SEQ ID NO:19), which are longer peptides (12 amino acids each) were used as negative and positive controls, respectively. A series of peptides were screened in primary rat neuronal cortical culture exposed to NMDA using the method described in Aono et al., Neuroscience (2003) 116:437 and Aono et al., Neurobiology of Disease (2002) 11:214, both of which are incorporated by reference in their entirety (see Table 2). Neuroprotection from NMDA mediated cell death in primary neuronal culture was expressed as percentage decrease in LDH, 24 hours after exposure to NMDA compared to vehicle treated cultures (Table 2). LDH release is indicative of neuronal death after NMDA exposure. The peptide VR-55 (SEQ ID NO:4) reduced NMDA mediated excitotoxic cell death by approximately 19% at a concentration of 1 μM. […] The positive control peptide VL-17-9 reduced LDH release by 31%.
Dose response of the neuroprotection from NMDA excitotoxicity in primary neuronal culture was determined for ApoE mimetic peptide VR-55 (SEQ ID NO: 4). […] “0” indicates less than 5% suppression; “+” indicates 5-10% suppression; “++” indicates 11-20% suppression; and “+++” indicates greater than 20% suppression. In addition to VL-17-9, several other candidates had greater than 20% suppression, including VR-55, VL-5-1, VL-5-2 and VR-52.

[2] = test system: mixed glial primary culture; test: Suppression of TNF-α release in mixed glial primary culture after exposure to LPS; type: cell-based, murine; conditions: FIGS. 11A and 11B
Protocol: (§1) In vitro methods have been developed using cultured cells for evaluating the ability of a compound, such as a peptide, to suppress glial activation. Laskowitz et al., (2001) Exp. Neurol., 167:74-85. Glial cell cultures were grown and maintained under standard conditions. Cultured glial cells may include primary murine mixed glial cell cultures, murine BV-2 microglial cells, and human C3 microglial cells. Adherent glial cells were washed with OptiMEM® medium (available from Invitrogen Corp.) to remove serum and covered with fresh OptiMEM® medium containing peptide.
Larger peptides or proteins may need to be tested at higher concentrations to observe measurable suppression of glial activation. If using primary murine cells and BV-2 cells, cells are stimulated with 100 ng/ml E. coli LPS (available from Sigma-Aldrich Co.), and supernatant is collected six hours after LPS stimulation and assayed for nitrite (using a colorimetric Griess reagent system, available from Promega Corp.) and/or TNF-α (using a solid-phase ELISA kit, available from Invitrogen Corp.). If using human C3 cells, cells are stimulated with 200 μg/ml polyinosinic acid 5′ (available from Sigma-Aldrich Co.), and supernatant is collected 5 days after stimulation and assayed for TNF-α using a solid-phase ELISA kit (available from Invitrogen Corp.).
The protective activity against brain injury-downregulating CNS inflammatory response was determined for ApoE mimetic peptides, VR-55 (SEQ ID NO: 4), VL-5-1 (SEQ ID NO: 5) and VL-5-3 (SEQ ID NO: 10).

[3] = test system: BV-2 murine microglial cells; test: Suppression of LPS-stimulated TNF-α production in BV-2 microglial cells (ELISA); type: cell-based; conditions: peptide 0.3, 3 or 30 μM; LPS 100 ng/mL, six hours; FIG. 1; listed as SEQ ID NO:3
Protocol: Cultured BV-2 murine microglial cells were incubated with either the indicated concentrations of peptide (SEQ ID NO:3) or a negative control peptide (SEQ ID NO:13) and stimulated with lipopolysaccharide (LPS) (100 ng/mL) for six hours. After six hours, supernatants were harvested and the concentration of secreted TNF-α was measured by ELISA (**p<0.01; ANOVA).
as §1
Larger peptides or proteins may need to be tested at higher concentrations to observe measurable suppression of glial activation. […]
Murine BV-2 cultures were prepared and used to evaluate suppression of microglial activation as described in Example 1. […] Each sample was stimulated with LPS and assessed for TNF-α production as described in Example 1.

[4] = test system: mice with traumatic brain injury; test: Rotorod vestibulomotor function after traumatic brain injury; type: in vivo, mouse; conditions: 0.05 mg/kg or 0.2 mg/kg iv at 2 h and 6 h after traumatic brain injury
Protocol: An experimental murine model for traumatic brain injury was developed. Laskowitz, et al. (2010) J. Neurotrauma, 27:1983-95. Male mice (age 12-14 weeks) were anesthetized with 4.3% isoflurane in oxygen in an anesthesia induction box for 90 seconds. The trachea was intubated and the lungs mechanically ventilated with 1.4% isoflurane in a 50/50 mixture of oxygen and nitrogen. Body temperature was maintained at 37° C. using surface heating/cooling. The top of the skull was exposed by a midline incision to identify anatomical landmarks, and a concave 3-mm metallic disc was secured to the skull surface with an adhesive, directly midline and just caudal to the bregma. The disc diffused the energy of impact and reduced the incidence of depressed skull fracture to less than 10%. After general anesthesia, mice were positioned in a stereotactic device and the skull was exposed. A pneumatic impactor (diameter: 2.0 mm; available from Air-Power, Inc.) discharged at 6.8±0.2 m/s with a head displacement of 3 mm was used to deliver a single midline impact to the disc surface.
An experimental procedure for measuring neurological deficits was developed. An automated rotorod (available from Ugo Basile North America, Inc.) was used to assess vestibulomotor function. On the day before experimental induction of a neurological condition or injury (such as, for example, traumatic brain injury or intracerebral hemorrhage as described above), mice under went two consecutive conditioning trials at a set rotational speed (16 revolutions per minute) for 60 seconds followed by three additional trials with an accelerating rotational speed. The average time to fall from the rotating cylinder in the latter three trials was recorded as baseline latency. After injury, mice under went consecutive daily testing with three trials of accelerating rotational speed (intertribal interval of 15 minutes). Average latency to fall from the rod was recorded, and mice unable to grip the rod were scored with a latency of 0 seconds.
Groups of mice received either an ApoE mimetic peptide (SEQ ID NO:3; 0.05 mg/kg or 0.2 mg/kg) or carrier (saline) by intravenous tail vein injection at 2 hours and again at 6 hours after traumatic brain injury induced as described in Example 3. Each mouse was tested for vestibulomotor function by rotorod latency measured before and after injury, as described in Example 3.
Groups of mice received either an ApoE mimetic peptide (SEQ ID NO:4; 0.05 mg/kg) or carrier (saline) by intravenous tail vein injection at 2 hours and again at 6 hours after traumatic brain injury induced as described in Example 3. Each mouse was tested for vestibulomotor function by rotorod latency measured before and after injury, as described in Example 3. […]

Row | Substance | percentage decrease in LDH, 24 hours after exposure to NMDA compared to vehicle treated cultures ([1]; peptide 1 μM) [%] | suppression of LDH release, cumulative data (class) ([1]; peptide 1 μM) | also measured
1 | Ac-ASHLRKLRKRLL-NH2 [AL-10-1, reference compound] | −6.21 | 0 (less than 5% suppression) | –
2 | Ac-LRVRLASLLRKL-NH2 [VL-17-9, longer peptide (12 amino acids) used as positive control, reference compound] | 30.95 | +++ (greater than 20% suppression) | reduced LDH release [1]: 31%; percentage decrease in LDH, 24 hours after exposure to NMDA compared to vehicle treated cultures ([1]; peptide 0.1 μM): 16.19%
3 | Ac-RARRL-NH2 [RL-5-2] | −5.23 | 0 (less than 5% suppression) | –
4 | Ac-RHKKL-NH2 [RL-5-1] | −2.85 | ++ (11-20% suppression) | –
5 | Ac-RHKRR-NH2 [RR-5-1] | 7.50 | + (5-10% suppression) | –
6 | Ac-RSKKL-NH2 [RL-5-3] | −20.80 | 0 (less than 5% suppression) | –
7 | Ac-RSKRR-NH2 [RR-5-2] | 0.08 | 0 (less than 5% suppression) | –
8 | Ac-VARKL-NH2 [VL-5-1] | 24.48 | +++ (greater than 20% suppression) | percentage decrease in LDH, 24 hours after exposure to NMDA compared to vehicle treated cultures ([1]; peptide 0.1 μM): 18.57%; percentage decrease in LDH, 24 hours after exposure to NMDA compared to vehicle treated cultures ([1]; peptide 0.3 μM): 0.29%; release of inflammatory cytokine TNF-α [2]: inhibition of microglial TNF-α secretion; also recorded: suppress the release of inflammatory cytokine TNF-α
9 | Ac-VARKL-NH2 [VL-5-2] | 34.26 | +++ (greater than 20% suppression) | reduced LDH release [1]: 31%
10 | Ac-VARRL-NH2 [VL-5-3] | 11.50 | ++ (11-20% suppression) | percentage decrease in LDH, 24 hours after exposure to NMDA compared to vehicle treated cultures ([1]; peptide 0.1 μM): −19.04%; percentage decrease in LDH, 24 hours after exposure to NMDA compared to vehicle treated cultures ([1]; peptide 0.3 μM): −16.70%; release of inflammatory cytokine TNF-α [2]: inhibition of microglial TNF-α secretion; also recorded: suppress the release of inflammatory cytokine TNF-α
11 | Ac-VSKKR-NH2 [VR-54, negative control peptide, reference compound] | −15.91 | ++ (11-20% suppression) | –
12 | Ac-VSKRR-NH2 [VR-53] | 7.03 | + (5-10% suppression) | TNF-α production relative to untreated cells or negative control peptide [3]: inhibition of microglial TNF-α secretion; also recorded: decreased TNF-α production; durability of effect on rotorod latency [4]: durable through the five-day testing period; vestibulomotor performance (rotorod latency) compared to carrier ([4]; FIG. 2, listed as SEQ ID NO:3): significantly improved vestibulomotor performance
13 | Ac-VSRKR-NH2 [VR-52] | 12.63 | +++ (greater than 20% suppression) | –
